Assay results published in publication PMC6149861, “Identification, In Vitro Testing and Molecular Docking Studies of Microginins’ Mechanism of Angiotensin-Converting Enzyme Inhibition” (Molecules : A Journal of Synthetic Chemistry and Natural …, 2017).
Like-named read-outs stand apart in the source and are kept apart here.

Tested on: angiotensin-converting enzyme (ACE; EC. 3.4.15.1)
Format: biochemical
Conditions: for ACE inhibitory rate: HHL substrate, pH 8.3, 37 °C, HPLC-DAD 226 nm, mean ± SEM of three repeats
Method: The ACE inhibiting capability was evaluated according to the method described by Wang et al. ([14], which employs the hippuryl-histidilleucina tripeptide (Hip-His-Leu or HHL) as the substrate and evaluates the formation of hippuric acid (HA) by liquid chromatography (HPLC-DAD). Briefly, the commercial enzyme ACE and the substrate HHL (Sigma-Aldrich®) were dissolved in borate buffer (NaOH and boric acid) 100 mmol·L^−1, pH 8.3, supplemented with 300 mmol·L^−1 NaCl; their concentrations were 0.2 U/mL and 5 mmol·L^−1, respectively. Meanwhile, HA and captopril (standard ACE inhibitor) were dissolved in distilled water. The enzyme was pre-incubated in the presence or absence of inhibitor (isolated microginins or captopril) for […] at 37 °C, and the reaction was initiated by addition of substrate. After 30 min, the reaction was stopped by adding 250 μL of hydrochloric acid, and the sample was directly injected into the chromatographic system. […] After 5 min, the substrate was added to start the reaction.
The inhibitory rate was calculated, according to Wang et al., by I% = (A − B)/A × 100%; where A is the peak area of HA without adding ACE inhibitors; and B is the peak area of HA with the addition of ACE inhibitors. All data presented are the average of three repeats; the data are presented as means ± SEM.

Molecule	ACE inhibitory rate (captopril 0.8 µM)	ACE inhibition (in words) (IC50-based comparison with other microginins)	ACE inhibitory rate (microginin 800 µg·mL^−1)
C[C@H](CS)C(=O)N1CCC[C@H]1C(=O)O [captopril, reference compound]	88.25 ± 1.19%		
MeAhda-L-Val-L-Leu-L-HTyr-L-Tyr [MG 770]		efficiently inhibits ACE, with activity comparable to that of other previously described microginins	92.15 ± 2.76%
